Molecules are shown by their SMILES. Structures can show the parent of a compound that is named as a salt. Where two headings read alike, the source gives them in different places. A value given as a limit tells only on which side of the number the result lay.

These results are taken from patent US10538521B2, “Pyrimidine derivative having antimalarial activity” (CARNA BIOSCIENCES, INC., priority 2016, dated 2020).

Assay [1] has as its system FCR3 strain, a drug sensitive strain of Plasmodium falciparum. As to the kind of experiment: In vitro antimalarial assay (p-LDH, Malstat), FCR3 strain. The assay is classed as cell-based. Particulars: P. falciparum FCR3 (drug sensitive), 72 h culture, p-LDH readout, read-out: Antimalarial activity (IC50 value), Strain FCR3. The source says:
(§1) For the evaluation of the antimalarial activity of the compound of the present invention, K1 strain, a drug resistant strain of Plasmodium falciparum, and FCR3 strain, a drug sensitive strain thereof, which were generous gift from Professor Kiyoshi Kita of the Graduate School of Medicine and Faculty of Medicine, the University of Tokyo, were used to measure the in vitro antimalarial activity of the compound against those Plasmodium species according to the method established by Otoguro et al. (Otoguro, K., Kohana, A., Manabe, C., Ishiyama, A., Ui, H., Shiomi, K., Yamada, H. & Omura, S.: Potent antimalarial activity of polyether antibiotic, X-206. J. Antibiot., 54: 658-663, (2001)).
(§2) The parasites were grown based on a slightly modified method from the original method reported by Trager and Jensen (Trager, W. and Jensen, J.: Human malaria parasites in continuous culture, Science, 193: 673-677, (1976)), and those which were maintained and sub-cultured by the method were used. More specifically, in a culture dish, erythrocytes infected with the protozoa, which had been sub-cultured using a RPMI 1640 medium to which 10% human plasma had been added and fresh human erythrocytes, were diluted (hematocrit value: 2 to 5%, parasitaemia: 0.25 to 1%), and were cultured at 37° C. in a mixed gas of 3% O2-4% CO2-93% N2, and continuously cultured while changing the medium and adding fresh erythrocytes at 2- or 3-day intervals.
(§3) A drug susceptibility test was performed by modifying the method established by Desjardins et al. (Desjardins, R. E., Canfield, C. J., Haynes, D. E. and Chulay, J. D.: Quantitative assessment of antimalarial activity in vitro by a semiautomated microdilution technique. Antimicrob. Agents Chemother., 16: 710-718 (1979)). More specifically, 190 μL of a suspension of protozoa which had been precultured (hematocrit value: 2%, parasitaemia: 0.5 or 1%) and 10 μL of a solution of a test compound (5% DMSO solution) serially diluted so that the final concentration was 12.5 to 0.0001 μM were put in each well of a 96-well plate, and after mixing, the same was cultured for 72 hours in the above mixed gas.
(§4) For the measurement of the growth of protozoa, the method established by Makler (Makler, M. T., Rise, J. M., Williams, J. A., Bancroft, J. E., Piper, R. C., Gibbins, B. L. and Hinrichs, D. J.: Parasite lactate dehydrogenase as an Assay for Plasmodium falciparum drug sensitivity, Am. J. Med. Hyg., 48: 739-741 (1993)) was modified to colorimetrically determine parasite lactate dehydrogenase (p-LDH) using Malstat reagent (Flow Inc., USA).
(§5) More specifically, 72 hours after the culture, the 96-well plate was directly frozen at −20° C. for 18 hours and melted at 37° C. to hemolyze the protozoan-infected erythrocytes and destroy the protozoa to prepare a crude enzyme solution. 100 μL of Malstat reagent and 20 μL of the crude enzyme solution were added to and mixed in each well of another 96-well plate, and after reacting for 15 minutes at room temperature, 20 μL of a nitroblue tetrazolium 2 mg/mL phenazine ethosulfate 0.1 mg/mL=1:1 solution was added to the respective wells, and reaction was performed in dark conditions at room temperature for 2 hours.
(§6) The absorbance of the blue formazan product formed by the reaction was measured at a measurement wavelength of 655 nm by using a microplate reader (Labsystems, Finland) to colorimetrically determine the growth of the protozoa. The 50% growth inhibitory concentration for the protozoa of the compound (IC50 value) was determined based on the concentration-response curve of the compound.

For assay [2], the system named is K1 strain, a drug resistant strain of Plasmodium falciparum. Kind of assay: In vitro antimalarial assay (p-LDH, Malstat), K1 strain. The assay is classed as cell-based. Particulars: read-out: Antimalarial activity (IC50 value), Strain K1.
Text: as §1, §2, §3, §4, §5, §6

The mark [3] stands for this setting: P. falciparum K1 (drug resistant), 72 h culture, p-LDH readout.

Usually IC50 stands for the concentration at which inhibition is half-maximal. Consider `CCOCCc1cccc(Nc2nc(Nc3ccn4ccnc4c3)cc(N3CCCC3)n2)n1` [Example 160, N2-[6-(2-ethoxyethyl)pyridin-2-yl]-N4-(imidazo[1,2-a]pyridin-7-yl)-6-(pyrrolidin-1-yl) pyrimidine-2,4-diamine], for which the IC50 in assay [1] and in assay [2] (setting [3]) was below 100 nM each time. For `Cc1cc(Cl)cc(Nc2nc(Nc3ccn4ccnc4c3)cc(N3CCCCC3)n2)n1` [Example 205, N2-(4-chloro-6-methylpyridin-2-yl)-N4-(imidazo[1,2-a]pyridin-7-yl)-6-(piperidin-1-yl) pyrimidine-2,4-diamine], the IC50 in assay [1] and in assay [2] (setting [3]) was 100 to 1000 nM in each case. Turning to `c1ncc(Nc2nc(Nc3ccn4ccnc4c3)cc(N3CCOCC3)n2)cn1` [Example 8, N4-(Imidazo[1,2-a]pyridin-7-yl)-6-morpholino-N2-(pyrimidin-5-yl)pyrimidine-2,4-diamine], the IC50 in assay [1] was in the range of 100 to 1000 nM; in assay [2] (setting [3]), 1000 to 10000 nM.

Consider `Cc1cc(C)nc(Nc2nc(Nc3ccn4ccnc4c3)cc(N3CCC3)n2)c1` [Example 166, 6-(azetidin-1-yl)-N2-(4,6-dimethylpyridin-2-yl)-N4-(imidazo [1,2-a]pyridin-7-yl)pyrimidine-2,4-diamine], for which the IC50 in assay [1] and in assay [2] (setting [3]) was below 100 nM in each case. Regarding `Cc1cccc(Nc2nc(Nc3ccn4ccnc4c3)cc(-n3ccnc3)n2)n1` [Example 41, N4-(imidazo[1,2-a]pyridin-7-yl)-6-(1H-imidazol-1-yl)-N2-(6-methylpyridin-2-yl)pyrimidine-2,4-diamine], the IC50 in assay [1] is below 100 nM; in assay [2] (setting [3]), 100 to 1000 nM. Turning to `COCCOc1ccc(Nc2nc(Nc3ccn4ccnc4c3)cc(N3CCOCC3)n2)cn1` [Example 66, N4-(imidazo[1,2-a]pyridin-7-yl)-N2-(6-(2-methoxyethoxy)-pyridin-3-yl)-6-morpholino-pyrimidine-2,4-diamine], the IC50 in assay [1] and in assay [2] (setting [3]) was 100 to 1000 nM in each case. With `CCOc1cccc(Nc2nc(Nc3ccn4ccnc4c3)cc(N3CCCC3)n2)n1` [Example 150, N2-(6-ethoxypyridin-2-yl)-N4-(imidazo[1,2-a]pyridin-7-yl)-6-(pyrrolidin-1-yl)pyrimidine-2,4-diamine], the IC50 in assay [1] is below 100 nM; in assay [2] (setting [3]) it was 100 to 1000 nM. Turning to `CCCc1ccnc(Nc2nc(Nc3ccn4ccnc4c3)cc(N3CCOCC3)n2)c1` [Example 74, N4-(imidazo[1,2-a]pyridin-7-yl)-6-morpholino-N2-(4-propylpyridin-2-yl)pyrimidine-2,4-diamine], the IC50 in assay [1] was below 100 nM; in assay [2] (setting [3]), 100 to 1000 nM. The corresponding values for `CCc1ccnc(Nc2nc(Nc3ccn4ccnc4c3)cc(N3CCN(C(=O)OC(C)(C)C)[C@H](C)C3)n2)c1` [Example 100, (R)-tert-butyl 4-(2-((4-ethylpyridin-2-yl)amino)-6-(imidazo[1,2-a]pyridin-7-ylamino)pyrimidin-4-yl)-2-methylpiperazine-1-carboxylate] are 100 to 1000 nM and 100 to 1000 nM.

`Cc1cc(C)nc(Nc2nc(Nc3ccn4ccnc4c3)cc(N3CCCC3)n2)c1` [Example 135, N2-(4,6-dimethylpyridin-2-yl)-N4-(imidazo[1,2-a]pyridin-7-yl)-6-(pyrrolidin-1-yl)pyrimidine-2,4-diamine]: the IC50 in assay [1] and in assay [2] (setting [3]) was below 100 nM each time. As to `Cc1cc(C)nc(Nc2nc(Nc3ccn4ccnc4c3)cc(N3CCC(C)C3)n2)c1` (stereo not drawn) [Example 146, N2-(4,6-dimethylpyridin-2-yl)-N4-(imidazo[1,2-a]pyridin-7-yl)-6-(3-methylpyrrolidin-1-yl)pyrimidine-2,4-diamine], the IC50 in assay [1] and in assay [2] (setting [3]) was below 100 nM throughout.

As for `CC(C)c1ccnc(Nc2nc(Nc3ccn4ccnc4c3)cc(N3CCOCC3)n2)c1` [Example 70, N4-(imidazo[1,2-a]pyridin-7-yl)-N2-(4-isopropylpyridin-2-yl)-6-morpholinopyrimidine-2,4-diamine], the IC50 in assay [1] and in assay [2] (setting [3]) was below 100 nM in each case. Take `CCc1cc(C)cc(Nc2nc(Nc3ccn4ccnc4c3)cc(N3CCCCC3)n2)n1` [Example 189, N2-(6-ethyl-4-methylpyridin-2-yl)-N4-(imidazo[1,2-a]pyridin-7-yl)-6-(piperidin-1-yl)pyrimidine-2,4-diamine]: the IC50 in assay [1] and in assay [2] (setting [3]) was below 100 nM each time. Take `CCCCc1cccc(Nc2nc(Nc3ccn4ccnc4c3)cc(N3CCC4(CCOCC4)C3)n2)n1` [Example 169, N2-(6-butylpyridin-2-yl)-N4-(imidazo[1,2-a]pyridin-7-yl)-6-(8-oxa-2-azaspiro[4.5]decan-2-yl) pyrimidine-2,4-diamine]: the IC50 in assay [1] and in assay [2] (setting [3]) was below 100 nM in each case. Turning to `Fc1ccc(Nc2nc(Nc3ccn4ccnc4c3)cc(N3CCOCC3)n2)nc1` [Example 13, N2-(5-Fluoropyridin-2-yl)-N4-(imidazo[1,2-a]pyridin-7-yl)-6-morpholinopyrimidine-2,4-diamine], the concentration for half-maximal inhibition (IC50) in assay [1] is below 100 nM; in assay [2] (setting [3]), 100 to 1000 nM. For `CC(C)Oc1cccc(Nc2nc(Nc3ccn4ccnc4c3)cc(N3CCCC3)n2)n1` [Example 153, N4-(imidazo[1,2-a]pyridin-7-yl)-N2-(6-isopropoxypyridin-2-yl)-6-(pyrrolidin-1-yl)pyrimidine-2,4-diamine], the IC50 in assay [1] and in assay [2] (setting [3]) was below 100 nM each time. As to `C=CCOc1ccc(Nc2nc(Nc3ccn4ccnc4c3)cc(N3CCOCC3)n2)cn1` [Example 76, N2-(6-(allyloxy)pyridin-3-yl)-N4-(imidazo[1,2-a]pyridin-7-yl)-6-morpholinopyrimidine-2,4-diamine], in assay [2] (setting [3]), the IC50 was 1000 to 10000 nM. `CC(C)Oc1ccc(Nc2nc(Nc3ccn4ccnc4c3)cc(N3CCN(C)[C@@H](C)C3)n2)cn1` [Example 56, (S)-6-(3,4-dimethylpiperazin-1-yl)-N4-(imidazo[1,2-a]pyridin-7-yl)-N2-(6-isopropoxypyridin-3-yl)pyrimidine-2,4-diamine]: the IC50 in assay [2] (setting [3]) fell in the range of 1000 to 10000 nM. Take `c1cc(Nc2nc(Nc3ccn4ccnc4c3)cc(N3CCOCC3)n2)ccn1` [Example 3, N4-(imidazo[1,2-a]pyridin-7-yl)-6-morpholino-N2-(pyridin-4-yl)pyrimidine-2,4-diamine dihydrochloride]: the IC50 in assay [2] (K1, 72 h) fell in the range of 1000 to 10000 nM. For `Oc1ccc(Nc2nc(Nc3ccn4ccnc4c3)cc(N3CCOCC3)n2)cn1` [Example 24, 5-(4-(Imidazo[1,2-a]pyridin-7-ylamino)-6-morpholinopyrimidin-2-ylamino)pyridin-2-ol], the IC50 in assay [2] (setting [3]) was in the range of 1000 to 10000 nM. With `CC(C)Oc1ccc(Nc2nc(Nc3ccn4ccnc4c3)cc(N3CCN(C)CC3)n2)cn1` [Example 59, N4-(imidazo[1,2-a]pyridin-7-yl)-N2-(6-isopropoxypyridin-3-yl)-6-(4-methylpiperazin-1-yl) pyrimidine-2,4-diamine], the IC50 in assay [2] (setting [3]) is 1000 to 10000 nM.

As for `c1cnc(Nc2nc(Nc3ccn4ccnc4c3)cc(N3CCOCC3)n2)nc1` [Example 16, N4-(Imidazo[1,2-a]pyridin-7-yl)-6-morpholino-N2-(pyrimidin-2-yl)pyrimidine-2,4-diamine], the IC50 in assay [2] (setting [3]) is 1000 to 10000 nM. For `CCOc1ccc(Nc2nc(Nc3ccn4ccnc4c3)cc(N3CCN(C)[C@@H](C)C3)n2)cn1` [Example 52, (S)-6-(3,4-Dimethylpiperazin-1-yl)-N2-(6-ethoxypyridin-3-yl)-N4-(imidazo[1,2-a]pyridin-7-yl) pyrimidine-2,4-diamine], the IC50 in assay [2] (setting [3]) lay within 1000 to 10000 nM.
